Results reported in the NIST ThermoML archive (doi:10.1021/je060271a).

Conditions: 343.15 K, Liquid, Vibrating tube method

CCCCCCC(=O)OCC(COC(=O)CCCCCC)(COC(=O)CCCCCC)COC(=O)CCCCCC [pentaerythritol tetraheptanoate]
Conditions	mass density [kg/m3]
20585 kPa	955.2
20620 kPa	955.3
20649 kPa	955.4
20679 kPa	955.3
20691 kPa	955.3
20708 kPa	955.3
20744 kPa	955.3
20773 kPa	955.5
20781 kPa	955.3
20803 kPa	955.4
20839 kPa	955.3
20869 kPa	955.5
20905 kPa	955.6
20935 kPa	955.4
20965 kPa	955.6
20996 kPa	955.5
21033 kPa	955.5
21064 kPa	955.6
21069 kPa	955.7
21096 kPa	955.6
21102 kPa	955.7
21133 kPa	955.6
21165 kPa	955.6
21196 kPa	955.7
21229 kPa	955.8
21267 kPa	955.7
21295 kPa	955.7
21320 kPa	955.9
21350 kPa	955.8
21376 kPa	955.8
21401 kPa	955.8
21432 kPa	955.8
21456 kPa	955.9
21483 kPa	955.8
21509 kPa	955.8
21540 kPa	955.9
21565 kPa	955.9
21591 kPa	955.9
21622 kPa	956
21647 kPa	956
21678 kPa	955.9
21704 kPa	955.9
21730 kPa	956.1
21760 kPa	956
21786 kPa	956.1
21813 kPa	956.2
21840 kPa	956.1
21872 kPa	956.1
21898 kPa	956.2
21930 kPa	956.1
21956 kPa	956
21983 kPa	956.1
22010 kPa	956.2
22042 kPa	956.2
22069 kPa	956.3
22096 kPa	956.1
22127 kPa	956.3
22129 kPa	956.2
22156 kPa	956.3
22161 kPa	956.2
22190 kPa	956.3
22195 kPa	956.4
22217 kPa	956.2
22244 kPa	956.3
22272 kPa	956.3
22300 kPa	956.3
22332 kPa	956.4
22360 kPa	956.5
22388 kPa	956.4
22421 kPa	956.4
22449 kPa	956.5
22478 kPa	956.4
22512 kPa	956.6
22540 kPa	956.6
22570 kPa	956.6
22599 kPa	956.7
22633 kPa	956.5
22661 kPa	956.6
22690 kPa	956.6
22704 kPa	956.7
22724 kPa	956.6
22740 kPa	956.7
22753 kPa	956.8
22782 kPa	956.6
22817 kPa	956.7
22846 kPa	956.8
22874 kPa	956.6
22910 kPa	956.7
22939 kPa	956.9
22970 kPa	956.7
23000 kPa	956.8
23030 kPa	956.9
23066 kPa	956.9
23095 kPa	956.9
23125 kPa	956.9
23162 kPa	957
23191 kPa	957
23227 kPa	957
23257 kPa	957.1
23288 kPa	957
23318 kPa	957
23355 kPa	957
23387 kPa	957.1
23417 kPa	957.1
23454 kPa	957.1
23484 kPa	957.2
23516 kPa	957.2
23552 kPa	957.1
23584 kPa	957.2
23615 kPa	957.2
23646 kPa	957.2
23681 kPa	957.3
